From patent US20050107611A1, “Pyrazolyl-substituted triazoloquinoxalines” (priority 2001, published 2005)

Columns and labels:
[1] = target: T1, human A1-adenosine receptor (Homo sapiens, UniProt P30542); assay: Radioligand binding with [3H]CCPA on recombinant human A1-adenosine receptors expressed by CHO cells; conditions: read-out: A1 K1, Human
T1 construct: expressed in transfected cells; host or cells: CHO cells
T1 sequence (P30542 1-326): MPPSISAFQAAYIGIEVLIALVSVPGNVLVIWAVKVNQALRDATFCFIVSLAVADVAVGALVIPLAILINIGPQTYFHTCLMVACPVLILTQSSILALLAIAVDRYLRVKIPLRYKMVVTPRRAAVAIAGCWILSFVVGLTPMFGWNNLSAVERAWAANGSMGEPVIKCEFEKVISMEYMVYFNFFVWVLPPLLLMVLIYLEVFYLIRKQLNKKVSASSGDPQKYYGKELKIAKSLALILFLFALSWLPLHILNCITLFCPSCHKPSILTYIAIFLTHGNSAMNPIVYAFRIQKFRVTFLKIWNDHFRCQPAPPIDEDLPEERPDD
From the text: The following selective radioligands are used in the biological tests: • [^3H]CCPA (for A1 ARs) [Klotz et al., Naunyn-Schmiedeberg's Arch. Pharmacol., 340, 679 (1989)] • [^3]MSX-2 (for A2A ARs) [Muiller et al., Eur. J. Pharm. Sci., 10, 259 (2000)] • [^3H]ZM241385 (for A2B ARs_[X.-D. Ji, K. A. Jacobson, Drug Des. Discov., 16, 217 (1999)] • [^3H]PSB-11 (new antagonistic radioligand for human A3 ARs) [M. Dieckmann, M. Thorand, V. Ozola, C. E. Muiller, in Vorbereitung [Preparation] (2001)]. • [^125I]AB-MECA (for rat-A3 ARs) [Olah et al., Mol. Pharmacol., 45, 978 (1994)]. Description of the Assays That are Used for Testing Substances Production of Tissue Preparations Made from Rat Brains
As cell cultures, for example, CHO cells, which express the human A1-adenosine receptor, are used.
The nutrient medium, trypsine and PBS (phosphate-buffered common salt solution) are heated in a water bath to 37° C. The medium is suctioned off from the flask that is approximately 80% to 90% confluently covered with CHO cells. […]
The mixture is incubated for 90 minutes in an oscillating water bath at 23° C. […] The filter plates are conveyed in scintillation vials, doused with 2.5 ml of Ultima Gold Scintillation cocktail and incubated for at least 6 hours before they are measured in a scintillation counter.
The mean value is calculated from three independent experiments. […]

A2A adenosine receptor = A2A adenosine receptor (Rattus norvegicus, UniProt P30543); conditions: Table 1, literature values; cited from earlier work

“4-(chloropyrazolyl)-1-(3-phenylpropyl)-[1,2,4-]triazolo[4,3-a]quinoxaline [Y = C—CH2—CH2—CH2-Ph, R5 = H, R6 = Cl]” showed a Ki [1] of 2 nM.
For `Clc1cc(-c2nc3ccccc3n3cnnc23)[nH]n1` [Y = C—H, R5 = H, R6 = Cl], the “A2A % Inhibition @ 25 μmol” value (A2A adenosine receptor) is listed as “(21%)”.
